Measurements published in the NIST ThermoML archive (doi:10.1016/j.fluid.2017.09.014).
Numbers after ± are expanded uncertainties.

Assay: xn = mol fraction of the nth substance listed
Conditions: Vibrating tube method, x2 = 0.9503

O=S=O [sulfur dioxide] + O=C=O
mass density (272.65 K, 226 kPa, Gas): 4.8 ± 0.2 kg/m3 | mass density (272.65 K, 407 kPa, Gas): 8.5 ± 0.2 kg/m3 | mass density (272.65 K, 503 kPa, Gas): 10.6 ± 0.2 kg/m3 | mass density (272.65 K, 752 kPa, Gas): 16.2 ± 0.2 kg/m3 | mass density (272.65 K, 1013 kPa, Gas): 22.1 ± 0.2 kg/m3 | mass density (272.65 K, 1252 kPa, Gas): 27.9 ± 0.2 kg/m3 | mass density (272.65 K, 1506 kPa, Gas): 34.4 ± 0.2 kg/m3 | mass density (272.65 K, 1752 kPa, Gas): 40.9 ± 0.4 kg/m3 | mass density (272.65 K, 1998 kPa, Gas): 47.9 ± 0.4 kg/m3 | mass density (273.54 K, 25506 kPa, Liquid): 1065.1 ± 0.4 kg/m3 | mass density (273.54 K, 26999 kPa, Liquid): 1069.9 ± 0.4 kg/m3 | mass density (273.54 K, 29024 kPa, Liquid): 1076.3 ± 0.4 kg/m3 | mass density (273.54 K, 29514 kPa, Liquid): 1077.7 ± 0.4 kg/m3 | mass density (273.54 K, 30524 kPa, Liquid): 1080.9 ± 0.4 kg/m3 | mass density (273.54 K, 31975 kPa, Liquid): 1085.1 ± 0.5 kg/m3 | mass density (273.54 K, 32491 kPa, Liquid): 1086.7 ± 0.6 kg/m3 | mass density (273.54 K, 33027 kPa, Liquid): 1088.3 ± 0.5 kg/m3 | mass density (273.54 K, 33521 kPa, Liquid): 1089.7 ± 0.5 kg/m3 | mass density (273.54 K, 34032 kPa, Liquid): 1091.1 ± 0.5 kg/m3 | mass density (273.54 K, 34491 kPa, Liquid): 1092.3 ± 0.5 kg/m3 | mass density (273.54 K, 35043 kPa, Liquid): 1093.9 ± 0.6 kg/m3 | mass density (273.54 K, 35534 kPa, Liquid): 1095.1 ± 0.5 kg/m3 | mass density (273.54 K, 36045 kPa, Liquid): 1096.7 ± 0.5 kg/m3 | mass density (273.54 K, 36490 kPa, Liquid): 1097.6 ± 0.5 kg/m3 | mass density (273.54 K, 37047 kPa, Liquid): 1099 ± 0.5 kg/m3 | mass density (273.54 K, 37529 kPa, Liquid): 1100.5 ± 0.5 kg/m3 | mass density (273.54 K, 38033 kPa, Liquid): 1101.8 ± 0.5 kg/m3 | mass density (273.54 K, 38558 kPa, Liquid): 1103.1 ± 0.5 kg/m3 | mass density (273.54 K, 41723 kPa, Liquid): 1110.7 ± 0.5 kg/m3 | mass density (273.55 K, 20535 kPa, Liquid): 1047.9 ± 0.4 kg/m3 | mass density (273.55 K, 24032 kPa, Liquid): 1060.4 ± 0.6 kg/m3 | mass density (273.55 K, 24523 kPa, Liquid): 1061.9 ± 0.4 kg/m3 | mass density (273.55 K, 25039 kPa, Liquid): 1063.6 ± 0.6 kg/m3 | mass density (273.55 K, 26016 kPa, Liquid): 1066.9 ± 0.6 kg/m3 | mass density (273.55 K, 26484 kPa, Liquid): 1068.3 ± 0.4 kg/m3 | mass density (273.55 K, 27554 kPa, Liquid): 1071.7 ± 0.4 kg/m3 | mass density (273.55 K, 28041 kPa, Liquid): 1073 ± 0.6 kg/m3 | mass density (273.55 K, 28539 kPa, Liquid): 1074.9 ± 0.4 kg/m3 | mass density (273.55 K, 30026 kPa, Liquid): 1079.4 ± 0.6 kg/m3 | mass density (273.55 K, 30952 kPa, Liquid): 1082.2 ± 0.4 kg/m3 | mass density (273.55 K, 31482 kPa, Liquid): 1083.6 ± 0.5 kg/m3 | mass density (273.55 K, 38992 kPa, Liquid): 1104 ± 0.5 kg/m3 | mass density (273.55 K, 39553 kPa, Liquid): 1105.7 ± 0.5 kg/m3 | mass density (273.55 K, 40023 kPa, Liquid): 1106.6 ± 0.3 kg/m3 | mass density (273.55 K, 40508 kPa, Liquid): 1107.8 ± 0.5 kg/m3 | mass density (273.55 K, 41016 kPa, Liquid): 1109 ± 0.5 kg/m3 | mass density (273.56 K, 12509 kPa, Liquid): 1014.7 ± 0.6 kg/m3 | mass density (273.56 K, 13012 kPa, Liquid): 1017.2 ± 0.6 kg/m3 | mass density (273.56 K, 13506 kPa, Liquid): 1019.3 ± 0.6 kg/m3 | mass density (273.56 K, 17514 kPa, Liquid): 1036.2 ± 0.6 kg/m3 | mass density (273.56 K, 18049 kPa, Liquid): 1038.2 ± 0.6 kg/m3 | mass density (273.56 K, 18515 kPa, Liquid): 1040.1 ± 0.6 kg/m3 | mass density (273.56 K, 19000 kPa, Liquid): 1042.1 ± 0.6 kg/m3 | mass density (273.56 K, 19509 kPa, Liquid): 1044 ± 0.4 kg/m3 | mass density (273.56 K, 20028 kPa, Liquid): 1046 ± 0.6 kg/m3 | mass density (273.56 K, 21029 kPa, Liquid): 1049.7 ± 0.6 kg/m3 | mass density (273.56 K, 21519 kPa, Liquid): 1051.3 ± 0.6 kg/m3 | mass density (273.56 K, 21993 kPa, Liquid): 1053 ± 0.6 kg/m3 | mass density (273.56 K, 22501 kPa, Liquid): 1054.9 ± 0.4 kg/m3 | mass density (273.56 K, 23496 kPa, Liquid): 1058.4 ± 0.6 kg/m3 | mass density (273.56 K, 41601 kPa, Liquid): 1110.4 ± 0.5 kg/m3 | mass density (273.57 K, 9944 kPa, Liquid): 1001.9 ± 0.6 kg/m3 | mass density (273.57 K, 10516 kPa, Liquid): 1004.5 ± 0.8 kg/m3 | mass density (273.57 K, 11003 kPa, Liquid): 1007 ± 0.6 kg/m3 | mass density (273.57 K, 11502 kPa, Liquid): 1009.5 ± 0.6 kg/m3 | mass density (273.57 K, 12005 kPa, Liquid): 1012.2 ± 0.6 kg/m3 | mass density (273.57 K, 14518 kPa, Liquid): 1023.6 ± 0.6 kg/m3 | mass density (273.57 K, 14951 kPa, Liquid): 1025.4 ± 0.6 kg/m3 | mass density (273.57 K, 15999 kPa, Liquid): 1029.8 ± 0.6 kg/m3 | mass density (273.57 K, 16500 kPa, Liquid): 1031.9 ± 0.6 kg/m3 | mass density (273.57 K, 17024 kPa, Liquid): 1034.2 ± 0.6 kg/m3 | mass density (273.57 K, 23015 kPa, Liquid): 1056.6 ± 0.6 kg/m3 | mass density (273.58 K, 8503 kPa, Liquid): 993.8 ± 0.8 kg/m3 | mass density (273.58 K, 9008 kPa, Liquid): 996.7 ± 0.8 kg/m3 | mass density (273.58 K, 9518 kPa, Liquid): 999.7 ± 0.8 kg/m3 | mass density (273.58 K, 15602 kPa, Liquid): 1028.1 ± 0.6 kg/m3 | mass density (273.6 K, 4001 kPa, Liquid): 964.9 ± 1 kg/m3 | mass density (273.6 K, 5521 kPa, Liquid): 975.5 ± 0.8 kg/m3 | mass density (273.6 K, 6005 kPa, Liquid): 978.7 ± 0.8 kg/m3 | mass density (273.6 K, 6503 kPa, Liquid): 981.9 ± 0.8 kg/m3 | mass density (273.6 K, 7034 kPa, Liquid): 984.6 ± 0.8 kg/m3 | mass density (273.6 K, 7688 kPa, Liquid): 987.5 ± 0.8 kg/m3 | mass density (273.6 K, 8003 kPa, Liquid): 990.6 ± 0.8 kg/m3 | mass density (273.61 K, 4518 kPa, Liquid): 968.2 ± 0.8 kg/m3 | mass density (273.61 K, 5013 kPa, Liquid): 972.1 ± 0.8 kg/m3 | mass density (282.65 K, 800 kPa, Gas): 16.5 ± 0.2 kg/m3 | mass density (282.65 K, 1249 kPa, Gas): 26.3 ± 0.2 kg/m3 | mass density (282.66 K, 120 kPa, Gas): 2.5 ± 0.2 kg/m3 | mass density (282.66 K, 211 kPa, Gas): 4.3 ± 0.2 kg/m3 | mass density (282.66 K, 301 kPa, Gas): 6.1 ± 0.2 kg/m3 | mass density (282.66 K, 408 kPa, Gas): 8.5 ± 0.2 kg/m3 | mass density (282.66 K, 511 kPa, Gas): 10.6 ± 0.2 kg/m3 | mass density (282.66 K, 608 kPa, Gas): 12.3 ± 0.2 kg/m3 | mass density (282.66 K, 1009 kPa, Gas): 21.1 ± 0.2 kg/m3 | mass density (282.66 K, 1509 kPa, Gas): 32.8 ± 0.2 kg/m3 | mass density (282.66 K, 1705 kPa, Gas): 37.5 ± 0.2 kg/m3 | mass density (282.66 K, 1909 kPa, Gas): 42.7 ± 0.2 kg/m3 | mass density (282.66 K, 2010 kPa, Gas): 45.2 ± 0.2 kg/m3 | mass density (282.66 K, 2199 kPa, Gas): 50.5 ± 0.4 kg/m3 | mass density (282.66 K, 2508 kPa, Gas): 59.6 ± 0.4 kg/m3 | mass density (282.66 K, 2702 kPa, Gas): 65.5 ± 0.4 kg/m3 | mass density (282.66 K, 3008 kPa, Gas): 76 ± 0.4 kg/m3 | mass density (283.31 K, 27537 kPa, Liquid): 1038.9 ± 0.4 kg/m3 | mass density (283.31 K, 34500 kPa, Liquid): 1062.8 ± 0.4 kg/m3 | mass density (283.31 K, 35516 kPa, Liquid): 1065.8 ± 0.4 kg/m3 | mass density (283.31 K, 36037 kPa, Liquid): 1067.5 ± 0.4 kg/m3 | mass density (283.31 K, 36515 kPa, Liquid): 1068.6 ± 0.4 kg/m3 | mass density (283.31 K, 37578 kPa, Liquid): 1072.1 ± 0.4 kg/m3 | mass density (283.31 K, 38061 kPa, Liquid): 1073.3 ± 0.4 kg/m3 | mass density (283.32 K, 5005 kPa, Liquid): 910.4 ± 1.2 kg/m3
